Data: EPA's ToxRefDB 2

Legend:
[1] = system: rat; conditions: Prenatal developmental toxicity study, sprague dawley, Oral, Gavage/Intubation, dose end: 17 GD
[2] = system: rabbit; conditions: Prenatal developmental toxicity study, new zealand white, Oral, Gavage/Intubation, dose end: 19 GD, group: maternal
[3] = system: rat; conditions: Fertility (Segment I), sprague dawley, Oral, Gavage/Intubation, dose end: 7 GD
[4] = system: rabbit; conditions: Prenatal developmental toxicity study; new zealand white; Oral; Gavage/Intubation; dose end: 19 GD; group: maternal; reproductive / offspring survival early / litter viability other / total litter loss + systemic / in life observation / body weight / body …
[5] = system: rat; conditions: Chronic toxicity, sprague dawley, Oral, Gavage/Intubation, dose end: 6 month, group: systemic
[6] = system: rat; conditions: Sub-acute repeat dose toxicity, sprague dawley, Oral, Gavage/Intubation, dose end: 28 day, group: systemic
[7] = system: dog; conditions: Sub-acute repeat dose toxicity, beagle, Oral, Gavage/Intubation, dose end: 4 week, group: systemic
[8] = system: rat; conditions: Carcinogenicity, other, Oral, Water, dose end: 110 week, group: systemic
[9] = system: mouse; conditions: Carcinogenicity; b6c3f1; Oral; Water; dose end: 90 week; group: systemic; systemic / pathology microscopic / liver / adenoma/carcinoma combined + systemic / pathology microscopic / liver / carcinoma + systemic / …
[10] = system: rat; conditions: Developmental neurotoxicity study; other; Oral; Gavage/Intubation; dose end: 112 PND; group: cannot be grouped; systemic / in life observation / body weight / offspring (pup) weight gain
[11] = system: dog; conditions: Chronic toxicity; beagle; Oral; Feed; dose end: 12 month; group: cholinesterase; cholinesterase / cholinesterase / cholinesterase / brain cholinesterase (che) + cholinesterase / cholinesterase / cholinesterase / …
[12] = system: mouse; conditions: Carcinogenicity, cd1, Oral, Feed, dose end: 108 week
[13] = system: dog; conditions: Chronic toxicity; beagle; Oral; Feed; dose end: 104 week; group: cholinesterase; cholinesterase / cholinesterase / cholinesterase / erythrocyte cholinesterase (che) + cholinesterase / cholinesterase / cholinesterase / …
[14] = system: rat; conditions: Combined chronic toxicity/carcinogenicity, fischer, Oral, Feed, dose end: 105 week
[15] = system: rat; conditions: Prenatal developmental toxicity study, sprague dawley, Oral, Gavage/Intubation, dose end: 15 GD
[16] = system: dog; conditions: Chronic toxicity; beagle; Oral; Feed; dose end: 107 week; group: systemic; systemic / pathology gross / eye / [other] + systemic / pathology gross / eye / discolored + systemic / pathology microscopic / eye / [other…
[17] = system: rat; conditions: Carcinogenicity; fischer; Oral; Gavage/Intubation; dose end: 103 week; group: systemic; systemic / pathology microscopic / spleen / fibrosis + systemic / pathology microscopic / stomach / dysplasia + systemic / pathology …
[18] = system: rat; conditions: Sub-acute repeat dose toxicity, fischer, Oral, Gavage/Intubation, dose end: 16 day, group: systemic
[19] = system: mouse; conditions: Carcinogenicity, b6c3f1, Oral, Gavage/Intubation, dose end: 103 week, group: systemic
[20] = system: mouse; conditions: Sub-acute repeat dose toxicity, b6c3f1, Oral, Gavage/Intubation, dose end: 16 day, group: systemic
[21] = system: mouse; conditions: Prenatal developmental toxicity study; cd1; Oral; Gavage/Intubation; dose end: 15 GD; group: maternal; systemic / in life observation / clinical signs / ataxia + systemic / in life observation / mortality / mortality
[22] = system: rat; conditions: Subchronic oral toxicity in rodents, fischer, Gavage/Intubation, dose end: 13 week, group: systemic
[23] = system: mouse; conditions: Subchronic oral toxicity in rodents, b6c3f1, Gavage/Intubation, dose end: 13 week, group: systemic
[24] = group: developmental, systemic / in life observation / body weight / fetal weight
[25] = group: maternal, systemic / in life observation / body weight / body weight gain + systemic / in life observation / clinical signs / coma + systemic / in …
[26] = systemic / in life observation / body weight / body weight gain + systemic / in life observation / food consumption / food consumption + …
[27] = group: maternal, reproductive / reproductive performance / estrous cycle / abnormal
[28] = group: parental, systemic / in life observation / body weight / body weight gain + systemic / in life observation / clinical signs / hunched posture + …
[29] = systemic / clinical chemistry / cholesterol / cholesterol + systemic / clinical chemistry / phosphorus / phosphate + systemic / clinical …
[30] = systemic / in life observation / clinical signs / hunched posture + systemic / pathology microscopic / liver / hypertrophy + systemic / in …
[31] = systemic / hematology / reticulocyte / reticulocyte + systemic / in life observation / clinical signs / hunched posture + systemic / in life…
[32] = systemic / in life observation / clinical signs / hunched posture + systemic / in life observation / clinical signs / piloerection
[33] = systemic / in life observation / clinical signs / dialated pupils + systemic / in life observation / clinical signs / defecation (diarrhea)
[34] = systemic / in life observation / clinical signs / dialated pupils + systemic / in life observation / clinical signs / defecation (diarrhea…
[35] = systemic / pathology microscopic / kidney / degeneration + systemic / pathology microscopic / stomach / ulcer
[36] = systemic / pathology microscopic / kidney / degeneration + systemic / pathology microscopic / stomach / ulcer + systemic / pathology …
[37] = group: cholinesterase, cholinesterase / cholinesterase / cholinesterase / brain cholinesterase (che) + cholinesterase / cholinesterase / cholinesterase / …
[38] = group: systemic, systemic / organ weight / kidney / relative to body weight + systemic / pathology microscopic / heart / lymphoma malignant
[39] = group: systemic, systemic / organ weight / kidney / relative to body weight + systemic / pathology microscopic / heart / lymphoma malignant + systemic / …
[40] = group: systemic, systemic / pathology gross / harderian gland / degeneration + systemic / in life observation / body weight / body weight + systemic / in …
[41] = group: cholinesterase, cholinesterase / cholinesterase / cholinesterase / erythrocyte cholinesterase (che) + cholinesterase / cholinesterase / cholinesterase / …
[42] = group: developmental, developmental / developmental malformation / bone / incomplete ossification
[43] = systemic / in life observation / body weight / body weight
[44] = systemic / in life observation / body weight / body weight + systemic / in life observation / mortality / mortality + systemic / pathology …
[45] = systemic / in life observation / body weight / body weight + systemic / pathology microscopic / harderian gland / adenoma + systemic / …
[46] = systemic / in life observation / body weight / body weight + systemic / in life observation / clinical signs / defecation (diarrhea) + …
[47] = systemic / pathology gross / sperm measure / sperm count + systemic / pathology gross / sperm measure / sperm motility
[48] = systemic / in life observation / body weight / body weight + systemic / pathology gross / sperm measure / sperm count + systemic / pathology…
[49] = systemic / pathology gross / sperm measure / sperm count + systemic / pathology gross / sperm measure / sperm motility + systemic / …

O=C(N[C@@H](c1ccccc1)[C@@H]1CCCCN1)c1cccc(C(F)(F)F)c1Cl
LEL [1, 24]: 25 mg/kg/day
LOAEL [1, 24]: 25 mg/kg/day
NEL [1, 24]: 5 mg/kg/day
NOAEL [1, 24]: 5 mg/kg/day
LOAEL ([1]; group: maternal, systemic / in life observation / body weight / body weight gain): 25 mg/kg/day
NEL [1, 25]: 5 mg/kg/day
NOAEL [1, 25]: 5 mg/kg/day
LEL ([1]; group: maternal, systemic / in life observation / body weight / body weight gain + systemic / in life observation / food consumption / food consumption): 25 mg/kg/day
LEL ([2]; systemic / in life observation / body weight / body weight gain + systemic / in life observation / food consumption / food consumption): 15 mg/kg/day
LOAEL [2, 26]: > 30 mg/kg/day
NEL [2, 26]: 5 mg/kg/day
NOAEL [2, 26]: ≥ 30 mg/kg/day
LEL [3, 27]: 50 mg/kg/day
LOAEL [3, 27]: > 50 mg/kg/day
NEL [3, 27]: 25 mg/kg/day
NOAEL [3, 27]: ≥ 50 mg/kg/day
LEL [3, 28]: 25 mg/kg/day
LOAEL [3, 28]: 25 mg/kg/day
NEL [3, 28]: 5 mg/kg/day
NOAEL [3, 28]: 5 mg/kg/day
LEL [4]: 30 mg/kg/day
LOAEL [4]: 30 mg/kg/day
NEL [4]: 10 mg/kg/day
NOAEL [4]: 10 mg/kg/day
LOAEL [5, 29]: > 50 mg/kg/day
NOAEL [5, 29]: ≥ 50 mg/kg/day
LEL [5, 30]: 5 mg/kg/day
NEL [5, 30]: < 5 mg/kg/day
LOAEL [6, 31]: 25 mg/kg/day
NOAEL [6, 31]: 5 mg/kg/day
LEL [6, 32]: 5 mg/kg/day
NEL [6, 32]: < 5 mg/kg/day
LEL [7, 33]: 1 mg/kg/day
NEL [7, 33]: < 1 mg/kg/day
LOAEL [7, 34]: > 10 mg/kg/day
NOAEL [7, 34]: ≥ 10 mg/kg/day

C1COCCO1 [1,4-Dioxane]
LOAEL [8, 35]: 240 mg/kg/day
NOAEL [8, 35]: < 240 mg/kg/day
LEL [8, 36]: 240 mg/kg/day
NEL [8, 36]: < 240 mg/kg/day
LEL [9]: 380 mg/kg/day
LOAEL [9]: > 830 mg/kg/day
NEL [9]: < 380 mg/kg/day
NOAEL [9]: ≥ 830 mg/kg/day

CN(C)CCCN1c2ccccc2Sc2ccc(Cl)cc21 [Chlorpromazine]
LEL [10]: 3 mg/kg/day
LOAEL [10]: > 9 mg/kg/day
NEL [10]: 1 mg/kg/day
NOAEL [10]: ≥ 9 mg/kg/day

CCOP(=S)(OCC)SCCSCC [Disulfoton]
LEL [11]: 0.094 mg/kg/day
LOAEL [11]: 0.094 mg/kg/day
NEL [11]: 0.013 mg/kg/day
NOAEL [11]: 0.013 mg/kg/day
LEL [12, 37]: 2.4 mg/kg/day
LOAEL [12, 37]: 2.4 mg/kg/day
NEL [12, 37]: 0.6 mg/kg/day
NOAEL [12, 37]: 0.6 mg/kg/day
LEL [12, 38]: 0.15 mg/kg/day
NEL [12, 38]: < 0.15 mg/kg/day
LOAEL [12, 39]: > 2.4 mg/kg/day
NOAEL [12, 39]: ≥ 2.4 mg/kg/day
LEL [13]: 0.05 mg/kg/day
LOAEL [13]: 0.05 mg/kg/day
NEL [13]: 0.025 mg/kg/day
NOAEL [13]: 0.025 mg/kg/day
LEL [14, 37]: 0.04 mg/kg/day
LOAEL [14, 37]: 0.04 mg/kg/day
NEL [14, 37]: < 0.04 mg/kg/day
NOAEL [14, 37]: < 0.04 mg/kg/day
LOAEL ([14]; group: systemic, systemic / pathology gross / harderian gland / degeneration): 0.65 mg/kg/day
LEL [14, 40]: 0.65 mg/kg/day
NEL [14, 40]: 0.165 mg/kg/day
NOAEL [14, 40]: 0.165 mg/kg/day
LEL [15, 41]: 0.3 mg/kg/day
LOAEL [15, 41]: 0.3 mg/kg/day
NEL [15, 41]: 0.1 mg/kg/day
NOAEL [15, 41]: 0.1 mg/kg/day
LEL [15, 42]: 1 mg/kg/day
LOAEL [15, 42]: 1 mg/kg/day
NEL [15, 42]: 0.3 mg/kg/day
NOAEL [15, 42]: 0.3 mg/kg/day
LEL [16]: 1.5 mg/kg/day
LOAEL [16]: 1.5 mg/kg/day
NEL [16]: 0.0375 mg/kg/day
NOAEL [16]: 0.0375 mg/kg/day

OCC1CO1 (configuration not stated) [Glycidol]
LEL [17]: 37.5 mg/kg/day
LOAEL [17]: 37.5 mg/kg/day
NEL [17]: < 37.5 mg/kg/day
NOAEL [17]: < 37.5 mg/kg/day
LEL [18, 43]: 150 mg/kg/day
LOAEL [18, 43]: 150 mg/kg/day
NEL [18, 44]: 75 mg/kg/day
NOAEL [18, 44]: 75 mg/kg/day
LEL [19, 45]: 25 mg/kg/day
NEL [19, 45]: < 25 mg/kg/day
NOAEL [19, 45]: 25 mg/kg/day
LOAEL ([19]; systemic / in life observation / body weight / body weight + systemic / pathology microscopic / stomach / hyperplasia): 50 mg/kg/day
LEL ([20]; systemic / in life observation / body weight / body weight + systemic / in life observation / clinical signs / defecation (diarrhea)): 150 mg/kg/day
LOAEL [20, 46]: > 600 mg/kg/day
NEL [20, 46]: 75 mg/kg/day
NOAEL [20, 46]: ≥ 600 mg/kg/day
LEL [21]: 200 mg/kg/day
LOAEL [21]: > 200 mg/kg/day
NEL [21]: 150 mg/kg/day
NOAEL [21]: ≥ 200 mg/kg/day
NOAEL ([22]; systemic / in life observation / body weight / body weight + systemic / pathology microscopic / brain / necrosis + systemic / in life …): 100 mg/kg/day
LOAEL ([22]; systemic / in life observation / body weight / body weight + systemic / pathology microscopic / brain / necrosis + systemic / pathology …): 200 mg/kg/day
LEL [22, 47]: 25 mg/kg/day
NEL [22, 47]: < 25 mg/kg/day
LEL [23, 48]: 19 mg/kg/day
NEL [23, 48]: < 19 mg/kg/day
LOAEL [23, 49]: 75 mg/kg/day
NOAEL [23, 49]: 38 mg/kg/day
